According to US20230242538A1, “PanK Modulators and Methods Using Same” (YALE UNIVERSITY, priority 2020, published 2023):
Converted amounts (≈) assume the structure as drawn. Read-outs that look alike come from different tables or passages of the source.

How the values were obtained:
[1] = tested on: yeast; conditions: cited from earlier work
[2] = tested on: WT cells (Saccharomyces cerevisiae); assay: Liquid growth assay in minimal medium, WT yeast; format: cell-based
Excerpt: (§1) Yeast strains (Saccharomyces cerevisiae) used in this study are JS91.15-23 (MATα his3 leu2 trp1 ura3) and JS91.14-24 (MATa ura3 his3 cab1ts) (Olzhausen, et al., 2009, Curr Genet 55, 163-173). Wild type and mutant strains were propagated either in YPD medium (2% bacto-peptone, 2% D-(+)-glucose and 1% yeast extract) or defined pantothenic acid-free (minimal) medium composed of Yeast Nitrogen Base (MP Biomedicals), supplemented with Complete Supplement Mixture (MP Biomedicals) and all vitamins except pantothenic acid. Where indicated, media were supplemented with appropriate concentrations of pantothenic acid.
(§2) Spotting assay were performed as follows. Pre-cultures of WT and cab1^ts yeast strains were prepared in YPD medium overnight at 30° C. Cells were harvested, washed, and diluted to 10^8 cells in 500 μL sterile water. Subsequent serial dilutions were made and 5 μL of cell suspensions were spotted on YPD agar plates lacking or supplemented with amorolfine 10 ng/mL, amphotericin B 1 μg/mL, fluconazole 10 μg/mL or terbinafine 10 μg/mL to achieve 10^6, 10^5, 10^4, 10^3, 10^2, and 10^1 cells per spot. Plates were incubated at 30° C. or 37° C. and imaged every 24 hours. For liquid assay in 96-well plate format, cells were pre-cultured overnight in liquid YPD medium at 30° C., washed three times in water and diluted to achieve 10^4 cells per well in 150 μL of minimal medium supplemented with 1 μM, 10 μM or 100 μM pantothenic acid and either lacking or supplemented with terbinafine (160 μg/ml). All plates were incubated at 30° C. Optical density measurements were taken with a BioTek SynergyMx microplate reader (OD630) every 8 hours for a total of 96 hours. Relative time to mid-log phase was calculated by first graphing growth curves of the varying concentrations of terbinafine for each concentration of pantothenic acid, and then determining the value at which the untreated curve reached saturation, and dividing it by 2 to represent the mid-log value. Dividing the time to mid-log phase of treated cells by the time to mid-log phase of untreated gave the relative time to mid-log phase.

[3] = tested on: cab1^ts cells (Saccharomyces cerevisiae JS91.14-24); assay: Spotting assay on YPD agar, cab1ts yeast; format: cell-based; conditions: 30° C., 48 hours; amorolfine 10 ng/mL, fluconazole 10 μg/mL, terbinafine 10 μg/mL, amphotericin B 1 μg/mL
Excerpt: as §1, §2

[4] = tested on: WT cells (Saccharomyces cerevisiae JS91.15-23); assay: Spotting assay on YPD agar, WT yeast; format: cell-based; conditions: 30° C., 48 hours; amorolfine 10 ng/mL, fluconazole 10 μg/mL, terbinafine 10 μg/mL, amphotericin B 1 μg/mL
Excerpt: as §1, §2

[5] = tested on: WT cells (Saccharomyces cerevisiae); assay: Drug-drug interaction with α-PanAm, checkerboard / isobologram; format: cell-based; conditions: n=2
Experimental: Clin. Microbiol. 43:140-143. The isobologram was produced by solving for the sum 50% fractional inhibitory concentration (ΣFIC50) using the equation: The data from the time-point where the 0 μg/mL terbinafine curve reached saturation was used to generate percent inhibition values, representing growth inhibition based on the concentration of terbinafine. This was done by dividing the value of interest by the untreated (0 μg/mL terbinafine) value, multiplying by 100 to get a percentage, and then subtracting that percentage from 100, representing 100% inhibition. The resulting values were used to create an inhibition curve, using the best fit function to generate an MIC50. […] The resulting MIC50 values were plugged into the ΣFIC50 equation, and the ΣFIC50 values were used to generate the curve.

[6] = tested on: cab1^ts cells (Saccharomyces cerevisiae); assay: Liquid growth assay in minimal medium, cab1ts yeast; format: cell-based; conditions: for relative time to mid-log phase in the presence vs. absence of the drug: 160 μg/mL terbinafine
Excerpt: as §1, §2

[7] = 100 μM PA, single agent: squalene 100 μg/mL or terbinafine 80 μg/mL
[8] = 1 μg/mL amphotericin B, 1 μM PA

Structure (SMILES) | mid-log phase reached at (time) [2, 7] [hours] | growth of cab1^ts cells on YPD agar in the presence of the drug [3] | growth of WT cells on YPD agar in the presence of the drug [4] | drug-drug interaction pattern with α-PanAm (isobologram) [5] | further results
CC(CNC(=O)[C@H](O)C(C)(C)CO)C(=O)NCCc1ccccc1 (stereo partly drawn) [α-PanAm] |  |  |  |  | MIC50 ([1]; medium supplemented with 1 μM pantothenic acid): ~7.6 mg/L (≈ 22.6 µM); MIC50 ([1]; medium with 100 nM pantothenic acid): ~1.9 mg/L (≈ 5.65 µM)
CC(C)=CCC/C(C)=C/CC/C(C)=C/CC/C=C(\C)CC/C=C(\C)CCC=C(C)C [squalene] | 34 |  |  |  | 
CCC(C)(C)c1ccc(CC(C)CN2C[C@@H](C)O[C@@H](C)C2)cc1 (stereo partly drawn) [amorolfine] |  | not affected | completely blocked |  | 
OC(Cn1cncn1)(Cn1cncn1)c1ccc(F)cc1F [fluconazole] |  | not affected | greatly reduced |  | 
CN(C/C=C/C#CC(C)(C)C)Cc1cccc2ccccc12 [terbinafine] | 47 | not affected | greatly reduced | antagonism | mid-log phase reached at (time) ([2]; 100 μM PA, terbinafine 80 μg/mL in the presence of 100 μg/mL squalene): 61 hours; relative time to mid-log phase in the presence vs. absence of the drug ([2]; 160 μg/mL terbinafine, 1 μM PA): 1.8; relative time to mid-log phase in the presence vs. absence of the drug ([2]; 160 μg/mL terbinafine, 10 μM PA): 2.1; relative time to mid-log phase in the presence vs. absence of the drug ([2]; 160 μg/mL terbinafine, 100 μM PA): 2.3; relative time to mid-log phase in the presence vs. absence of the drug ([6]; 1 μM PA): 1.1; relative time to mid-log phase in the presence vs. absence of the drug ([6]; 10 μM PA): 1.4; relative time to mid-log phase in the presence vs. absence of the drug ([6]; 100 μM PA): 1.6
C[C@@H]1[C@H](O)[C@@H](C)/C=C/C=C/C=C/C=C/C=C/C=C/C=C/[C@H](O[C@@H]2O[C@H](C)[C@@H](O)[C@H](N)[C@@H]2O)C[C@@H]2O[C@](O)(C[C@@H](O)C[C@@H](O)[C@H](O)CC[C@@H](O)C[C@@H](O)CC(=O)O[C@H]1C)C[C@H](O)[C@H]2C(=O)O [amphotericin B] |  | reduced dramatically | only slightly inhibited | synergism | relative time to mid-log phase in the presence vs. absence of the drug [2, 8]: 2.1; growth of WT cells in liquid medium ([2]; 1 μg/mL amphotericin B, 100 μM PA): not significantly affected; growth of cab1^ts cells in liquid medium [6, 8]: did not grow whatsoever
